Consider nine compounds from US20240317777A1, “NOVEL MACROCYCLIC AMINOPYRAZOLE COMPOUNDS AS CDK2 INHIBITORS” (Accutar Biotechnology Inc., priority 2023, published 2024).

Structures are written as SMILES. pIC50: −log10 of the molar value. Read-outs that look alike come from different tables or passages of the source.

The test system of test [1] is CCNE1-amplified OVCAR3 cells. In words: Cell growth inhibition of CCNE1-amplified OVCAR3 cells (CellTiter-Glo). To be noted: Homo sapiens, OVCAR-3, 144 h, 6 days. Format: cell-based. The gist of the method: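 Growth read-out was CellTiter-Glo luminescence, taken after 10 min at room temperature at the end of a 6-day compound exposure at 37 °C. Compounds were diluted from DMSO stocks across various concentrations.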
(In general: Cellular ATP, detected with luciferase, serves as a proxy for viable cell number.)

In test [2] the test system is Phospho-Rb (Ser807/811) in OVCAR3 cells. In words: Phospho-Rb expression inhibition in OVCAR3 cells quantified by In Cell Western. The class given is cell-based. To be noted: Homo sapiens, OVCAR-3, 24 hours, read-out: OVCAR-3 pRb IC50. The gist of the method: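 In-cell western: after 24 h compound exposure at 37° C, fixed OVCAR3 cells co-stained for pRb Ser807/811 (800 nm channel) and total Rb (680 nm channel), imaged by LI-COR Odyssey.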

The target of the next test is CDK2-CYCLIN E1 (Homo sapiens, UniProt P24941). In words: CDK protein kinase inhibition by ADP-Glo assay, CDK2-CYCLIN E1. The class given is biochemical. As to conditions: read-out: CDK2-CYCLINE, IC50. The gist of the method:
(§1)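 Kinase/cyclin + peptide substrate + cpd + ATP (1000 μM)/MgCl2 (5 mM), HEPES pH 7.5, 22° C; quench, ADP-Glo reagent 45 min RT, detection reagent 10 min, luminescence.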
(ADP-Glo turns the ADP formed in a reaction into a luminescent signal.)

A further test deals with CDK9-CYCLIN T1 (Homo sapiens, UniProt P50750). Briefly: CDK protein kinase inhibition by ADP-Glo assay, CDK9-CYCLIN T1. Format: biochemical. To be noted: for pIC50: read-out: CDK9-CYCLINT1, IC50; for CDK2 Fold selectivity against CDK9: fold selectivity for CDK2 over CDK9, recombinant CDK kinases. The method in brief:
as §1

The next test concerns the target CDK4-CYCLIN D1 (Homo sapiens, UniProt P11802). In words: CDK protein kinase inhibition by ADP-Glo assay, CDK4-CYCLIN D1. Format: biochemical. As to conditions: for pIC50: read-out: CDK4-CYCLIND1, IC50; for CDK2 Fold selectivity against CDK4: fold selectivity for CDK2 over CDK4, recombinant CDK kinases. The method in brief:
as §1

A further test has as its system CCNE1-normal SKOV3 cells. Briefly: Cell growth inhibition of CCNE1-normal SKOV3 cells (CellTiter-Glo). The class given is cell-based. To be noted: Homo sapiens, SK-OV-3, 144 h, 6 days. The method in brief:
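Growth was measured by CellTiter-Glo luminescence after 6 days' compound exposure at 37 °C. Cells were plated one day before dosing at 1000 per well in medium with 10% FBS, and compounds were diluted from DMSO stocks.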

The next test addresses CDK1-CYCLIN B (Homo sapiens, UniProt P06493). Briefly: CDK protein kinase inhibition by ADP-Glo assay, CDK1-CYCLIN B. Format: biochemical. As to conditions: for pIC50: read-out: CDK1-CYCLINB, IC50; for CDK2 Fold selectivity against CDK1: fold selectivity for CDK2 over CDK1, recombinant CDK kinases. The method in brief:
as §1

The target of the next test is CDK6-CYCLIN D3 (Homo sapiens, UniProt Q00534). In words: CDK protein kinase inhibition by ADP-Glo assay, CDK6-CYCLIN D3. Format: biochemical. To be noted: for pIC50: read-out: CDK6-CYCLIND3, IC50; for CDK2 Fold selectivity against CDK6: fold selectivity for CDK2 over CDK6, recombinant CDK kinases. The method in brief: as §1
Setting [3] is: Table 35, recombinant CDK kinase.
Setting [4] is: Table 37, recombinant CDK kinase.

CDK9-CYCLIN T1, sequence (P50750 whole entry): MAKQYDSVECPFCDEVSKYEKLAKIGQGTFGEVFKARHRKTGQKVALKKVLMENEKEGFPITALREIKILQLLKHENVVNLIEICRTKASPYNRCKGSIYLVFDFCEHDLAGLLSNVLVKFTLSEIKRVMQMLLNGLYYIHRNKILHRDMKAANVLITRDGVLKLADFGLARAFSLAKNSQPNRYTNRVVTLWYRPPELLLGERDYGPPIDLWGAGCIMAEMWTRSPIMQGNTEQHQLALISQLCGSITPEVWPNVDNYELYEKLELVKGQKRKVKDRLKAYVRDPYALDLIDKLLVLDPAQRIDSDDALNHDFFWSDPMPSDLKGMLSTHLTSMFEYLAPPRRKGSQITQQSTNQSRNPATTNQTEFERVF
CDK9-CYCLIN T1, sequence (O60563 whole entry partner): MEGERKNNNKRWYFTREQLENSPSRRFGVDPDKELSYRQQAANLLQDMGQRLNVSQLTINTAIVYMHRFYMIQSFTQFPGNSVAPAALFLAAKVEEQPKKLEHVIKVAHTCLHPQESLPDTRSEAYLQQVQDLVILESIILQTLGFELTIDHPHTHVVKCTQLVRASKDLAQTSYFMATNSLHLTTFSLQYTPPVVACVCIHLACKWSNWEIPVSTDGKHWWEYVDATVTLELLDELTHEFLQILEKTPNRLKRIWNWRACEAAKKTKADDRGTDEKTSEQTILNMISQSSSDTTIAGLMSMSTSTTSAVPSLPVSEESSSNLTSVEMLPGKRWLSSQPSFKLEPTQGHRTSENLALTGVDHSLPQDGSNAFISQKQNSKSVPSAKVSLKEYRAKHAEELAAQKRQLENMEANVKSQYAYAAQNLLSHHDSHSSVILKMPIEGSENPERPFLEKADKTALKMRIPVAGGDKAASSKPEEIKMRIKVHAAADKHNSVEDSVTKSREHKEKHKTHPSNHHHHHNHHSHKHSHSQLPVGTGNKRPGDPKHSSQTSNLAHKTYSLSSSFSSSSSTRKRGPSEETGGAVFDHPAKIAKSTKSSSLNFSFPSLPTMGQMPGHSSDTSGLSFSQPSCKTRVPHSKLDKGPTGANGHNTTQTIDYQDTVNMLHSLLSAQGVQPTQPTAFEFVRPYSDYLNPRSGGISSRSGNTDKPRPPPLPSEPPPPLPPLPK
CDK4-CYCLIN D1, sequence (P11802 whole entry): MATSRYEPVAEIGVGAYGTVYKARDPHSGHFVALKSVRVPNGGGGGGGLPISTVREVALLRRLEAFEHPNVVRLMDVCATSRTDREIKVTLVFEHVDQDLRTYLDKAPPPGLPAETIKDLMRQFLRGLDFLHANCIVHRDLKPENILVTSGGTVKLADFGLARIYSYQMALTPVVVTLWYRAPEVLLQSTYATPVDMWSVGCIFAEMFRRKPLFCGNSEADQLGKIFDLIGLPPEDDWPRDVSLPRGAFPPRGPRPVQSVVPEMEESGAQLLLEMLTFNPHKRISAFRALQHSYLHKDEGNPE
CDK4-CYCLIN D1, sequence (P24385 whole entry partner): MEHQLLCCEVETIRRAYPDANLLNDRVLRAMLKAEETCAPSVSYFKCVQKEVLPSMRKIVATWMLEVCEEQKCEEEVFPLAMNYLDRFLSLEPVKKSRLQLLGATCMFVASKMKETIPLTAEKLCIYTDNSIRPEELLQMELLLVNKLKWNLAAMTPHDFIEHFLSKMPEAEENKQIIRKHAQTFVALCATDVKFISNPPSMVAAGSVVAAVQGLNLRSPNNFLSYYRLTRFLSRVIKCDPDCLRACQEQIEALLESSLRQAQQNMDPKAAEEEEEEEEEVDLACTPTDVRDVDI
CDK6-CYCLIN D3, sequence (Q00534 whole entry): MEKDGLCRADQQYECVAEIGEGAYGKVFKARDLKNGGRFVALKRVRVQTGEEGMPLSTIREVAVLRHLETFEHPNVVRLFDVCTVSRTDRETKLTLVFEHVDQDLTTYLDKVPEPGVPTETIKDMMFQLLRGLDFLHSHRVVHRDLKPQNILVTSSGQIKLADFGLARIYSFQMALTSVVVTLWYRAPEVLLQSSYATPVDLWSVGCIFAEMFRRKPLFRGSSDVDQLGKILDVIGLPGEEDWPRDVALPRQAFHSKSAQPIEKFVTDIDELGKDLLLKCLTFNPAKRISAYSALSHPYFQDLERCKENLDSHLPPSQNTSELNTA
CDK6-CYCLIN D3, sequence (P30281 whole entry partner): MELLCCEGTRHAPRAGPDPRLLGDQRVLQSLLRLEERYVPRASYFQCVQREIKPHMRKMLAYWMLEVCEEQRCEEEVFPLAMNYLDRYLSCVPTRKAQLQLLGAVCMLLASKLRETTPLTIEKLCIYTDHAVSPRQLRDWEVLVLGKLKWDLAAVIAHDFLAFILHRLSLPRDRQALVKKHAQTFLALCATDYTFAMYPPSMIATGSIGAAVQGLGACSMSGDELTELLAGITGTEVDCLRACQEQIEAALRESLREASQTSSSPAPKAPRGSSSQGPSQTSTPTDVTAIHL
CDK1-CYCLIN B, sequence (P06493 whole entry): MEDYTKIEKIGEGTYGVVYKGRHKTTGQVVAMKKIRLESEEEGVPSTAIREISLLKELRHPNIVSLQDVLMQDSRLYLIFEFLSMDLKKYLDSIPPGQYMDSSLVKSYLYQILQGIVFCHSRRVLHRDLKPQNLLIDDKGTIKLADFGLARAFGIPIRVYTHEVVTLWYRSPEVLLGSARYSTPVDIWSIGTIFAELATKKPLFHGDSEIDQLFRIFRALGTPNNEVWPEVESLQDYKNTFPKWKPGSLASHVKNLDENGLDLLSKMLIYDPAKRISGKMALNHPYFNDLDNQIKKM
CDK1-CYCLIN B, sequence (P14635 whole entry partner): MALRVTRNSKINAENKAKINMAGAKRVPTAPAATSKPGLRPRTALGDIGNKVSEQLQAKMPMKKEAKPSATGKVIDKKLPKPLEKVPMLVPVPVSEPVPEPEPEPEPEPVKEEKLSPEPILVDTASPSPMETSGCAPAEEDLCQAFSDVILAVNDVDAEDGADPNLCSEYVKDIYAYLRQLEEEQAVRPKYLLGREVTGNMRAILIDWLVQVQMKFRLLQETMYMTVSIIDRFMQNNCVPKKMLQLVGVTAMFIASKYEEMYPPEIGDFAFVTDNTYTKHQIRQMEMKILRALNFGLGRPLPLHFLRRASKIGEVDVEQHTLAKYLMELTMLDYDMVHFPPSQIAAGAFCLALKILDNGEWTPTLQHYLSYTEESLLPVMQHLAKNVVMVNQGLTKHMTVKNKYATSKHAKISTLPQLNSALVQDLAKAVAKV

Consider `C[C@H]1CCCOc2cc(ccn2)Nc2cc(n[nH]2)[C@H]2C[C@@H](F)[C@H](C2)OC(=O)N1` [Compound 224, (1^1R,1^3S,1^4R,9S,Z)-1^4-fluoro-9-methyl-2^1H-5,12-dioxa-3,10-diaza-4(4,2)-pyridina-2(3,5)-pyrazola-1(1,3)-cyclopentanacyclododecaphan-11-one], for which the pIC50 (in general, the negative decadic logarithm of the IC50, by convention in mol/L) is 7.30 to 8.00 in test [1]; 8.00 to 8.70 in test [2]; no less than 8.00 at CDK2-CYCLIN E1 (setting [3]); less than 6.30 at CDK9-CYCLIN T1 (setting [3]); 6.30 to 7.00 on CDK4-CYCLIN D1 (setting [3]); less than 5.90 with CCNE1-normal SKOV3 cells. For the same compound, the pIC50 is 7.30 to 8.00 on CDK1-CYCLIN B (setting [3]) and 6.30 to 7.00 at CDK6-CYCLIN D3 (setting [3]). The “CDK2 Fold selectivity against CDK9” value on CDK9-CYCLIN T1 (Table 36) was “B (B, >100 and ≤500)”. For the same compound, the “CDK2 Fold selectivity against CDK4” value at CDK4-CYCLIN D1 (Table 36) is “C (C, >50 and ≤100)”. Also, on CDK1-CYCLIN B (Table 36), the “CDK2 Fold selectivity against CDK1” value is “E (E, <20)”. In addition, the “CDK2 Fold selectivity against CDK6” value on CDK6-CYCLIN D3 (Table 36) is “C (C, >50 and ≤100)”.

Consider `C[C@H]1CCCOc2cc(ccn2)Nc2cc(n[nH]2)[C@@H]2C[C@H](F)[C@@H](C2)OC(=O)N1` [Compound 225, (1^1S,1^3R,1^4S,9S,Z)-1^4-fluoro-9-methyl-2^1H-5,12-dioxa-3,10-diaza-4(4,2)-pyridina-2(3,5)-pyrazola-1(1,3)-cyclopentanacyclododecaphan-11-one], for which the negative-log IC50 (pIC50) is 7.30 to 8.00 in test [1]; 8.00 to 8.70 in test [2]; no less than 8.00 at CDK2-CYCLIN E1 (setting [3]); 7.30 to 8.00 on CDK9-CYCLIN T1 (setting [3]); 7.30 to 8.00 on CDK4-CYCLIN D1 (setting [3]); 5.90 to 6.60 in the test with CCNE1-normal SKOV3 cells. Further, the results for the negative-log IC50 (pIC50) on CDK1-CYCLIN B (setting [3]) and on CDK6-CYCLIN D3 (setting [3]) were no less than 8.00 and 7.30 to 8.00, respectively. For the same compound, the “CDK2 Fold selectivity against CDK9” value on CDK9-CYCLIN T1 (Table 36) is given as “E (E, <20)”. Besides, the “CDK2 Fold selectivity against CDK4” value at CDK4-CYCLIN D1 (Table 36) is “E (E, <20)”. Also, the “CDK2 Fold selectivity against CDK1” value on CDK1-CYCLIN B (Table 36) is recorded as “E (E, <20)”. The “CDK2 Fold selectivity against CDK6” value at CDK6-CYCLIN D3 (Table 36) is on record as “E (E, <20)”.

Turning to `C[C@H]1CC(F)(F)COc2cc(ccn2)Nc2[nH]nc(c2F)[C@H]2CC[C@H](C2)OC(=O)N1` [Compound 244, (1^1S,1^3R,9S,E)-2^4,7,7-trifluoro-9-methyl-2^1H-5,12-dioxa-3,10-diaza-4(4,2)-pyridina-2(3,5)-pyrazola-1(1,3)-cyclopentanacyclododecaphan-11-one], the pIC50 was 6.60 to 7.30 in test [1]; 7.30 to 8.00 in test [2]; no less than 8.00 on CDK2-CYCLIN E1 (setting [4]); less than 6.30 at CDK9-CYCLIN T1 (setting [4]); less than 6.30 at CDK4-CYCLIN D1 (setting [4]); less than 5.90 in the test on CCNE1-normal SKOV3 cells. The pIC50 at CDK1-CYCLIN B (setting [4]) was 6.30 to 7.00; on CDK6-CYCLIN D3 (setting [4]), less than 6.30. Besides, the “CDK2 Fold selectivity against CDK9” value at CDK9-CYCLIN T1 (Table 38) is on record as “A (A, ≥500)”. For the same compound, the “CDK2 Fold selectivity against CDK4” value on CDK4-CYCLIN D1 (Table 38) is “B (B, >100 and ≤500)”. In addition, the “CDK2 Fold selectivity against CDK1” value on CDK1-CYCLIN B (Table 38) was “D (D, >20 and ≤50)”. Also, the “CDK2 Fold selectivity against CDK6” value on CDK6-CYCLIN D3 (Table 38) was “B (B, >100 and ≤500)”.

`C[C@H]1CCCNC(=O)O[C@@H]2CC[C@@H](C2)c2cc([nH]n2)Nc2ccnc(c2)O1` [compound 12]: the pIC50 in test [1] was 7.30 to 8.00; in test [2], 8.00 to 8.70; at CDK2-CYCLIN E1 (ADP-Glo, 1000 μM ATP, Table 11), no less than 8.00; at CDK9-CYCLIN T1 (ADP-Glo, 1000 μM ATP, Table 11) it was 6.30 to 7.00; on CDK4-CYCLIN D1 (ADP-Glo, 1000 μM ATP, Table 11) it was 6.30 to 7.00; in the test on CCNE1-normal SKOV3 cells, 5.90 to 6.60. For the same compound, the pIC50 at CDK1-CYCLIN B (ADP-Glo, 1000 μM ATP, Table 11) is 7.30 to 8.00; at CDK6-CYCLIN D3 (ADP-Glo, 1000 μM ATP, Table 11) it was 6.30 to 7.00.

Take `O=C1NC23CC(CCc4cc(ccn4)Nc4cc([nH]n4)[C@H]4CC[C@H](C4)O1)(C2)C3` [compound 21]: the pIC50 was 8.00 to 8.70 in test [1]; 8.00 to 8.70 in test [2]; 7.30 to 8.00 on CDK2-CYCLIN E1 (ADP-Glo, 1000 μM ATP, Table 9); 6.30 to 7.00 on CDK9-CYCLIN T1 (ADP-Glo, 1000 μM ATP, Table 9); 6.30 to 7.00 at CDK4-CYCLIN D1 (ADP-Glo, 1000 μM ATP, Table 9); 5.90 to 6.60 in the test on CCNE1-normal SKOV3 cells. The pIC50 at CDK1-CYCLIN B (ADP-Glo, 1000 μM ATP, Table 9) was less than 6.30; at CDK6-CYCLIN D3 (ADP-Glo, 1000 μM ATP, Table 9) it was 6.30 to 7.00.

On to `C[C@H]1OCCCNC(=O)O[C@@H]2CC[C@@H](C2)c2cc([nH]n2)Nc2ccnc1c2` [compound 71], for which the negative-log IC50 (pIC50) was 7.30 to 8.00 in test [1]; 8.00 to 8.70 in test [2]; no less than 8.00 at CDK2-CYCLIN E1 (ADP-Glo, 1000 μM ATP, Table 15); 6.30 to 7.00 on CDK9-CYCLIN T1 (ADP-Glo, 1000 μM ATP, Table 15); 6.30 to 7.00 at CDK4-CYCLIN D1 (ADP-Glo, 1000 μM ATP, Table 15); 6.60 to 7.30 in the test on CCNE1-normal SKOV3 cells. Besides, the negative-log IC50 (pIC50) was 7.00 to 7.30 on CDK1-CYCLIN B (ADP-Glo, 1000 μM ATP, Table 15) and 6.30 to 7.00 at CDK6-CYCLIN D3 (ADP-Glo, 1000 μM ATP, Table 15).

For the compound `O=C1NCCCCOc2cncc(c2)Nc2cc(n[nH]2)[C@H]2CC[C@H](C2)O1` [compound 104], the pIC50 in test [1] was 7.30 to 8.00; in test [2], 8.00 to 8.70; at CDK2-CYCLIN E1 (ADP-Glo, 1000 μM ATP, Table 7) it was no less than 8.00; at CDK9-CYCLIN T1 (ADP-Glo, 1000 μM ATP, Table 7) it was 6.30 to 7.00; on CDK4-CYCLIN D1 (ADP-Glo, 1000 μM ATP, Table 7), 7.00 to 7.30; in the test on CCNE1-normal SKOV3 cells, less than 5.90. Besides, the pIC50 on CDK1-CYCLIN B (ADP-Glo, 1000 μM ATP, Table 7) was 7.30 to 8.00; on CDK6-CYCLIN D3 (ADP-Glo, 1000 μM ATP, Table 7), 7.30 to 8.00.

`C[C@@H]1CCC2(CC2)NC(=O)O[C@@H]2CC[C@@H](C2)c2cc([nH]n2)Nc2ccnc(c2)O1` [compound 109]: the negative logarithm of the IC50 (pIC50) is 7.30 to 8.00 in test [1]; 8.00 to 8.70 in test [2]; no less than 8.00 at CDK2-CYCLIN E1 (ADP-Glo, 1000 μM ATP, Table 9); 6.30 to 7.00 at CDK9-CYCLIN T1 (ADP-Glo, 1000 μM ATP, Table 9); 7.00 to 7.30 on CDK4-CYCLIN D1 (ADP-Glo, 1000 μM ATP, Table 9); 5.90 to 6.60 in the test with CCNE1-normal SKOV3 cells. Also, the pIC50 on CDK1-CYCLIN B (ADP-Glo, 1000 μM ATP, Table 9) is 7.30 to 8.00; on CDK6-CYCLIN D3 (ADP-Glo, 1000 μM ATP, Table 9), 6.30 to 7.00.

As to `O=C1N[C@H]2C[C@H](CCc3cc(ccn3)Nc3cc(n[nH]3)[C@H]3CC[C@H](C3)O1)C2` [compound 140], the negative logarithm of the IC50 (pIC50) is 7.30 to 8.00 in test [1]; 8.00 to 8.70 in test [2]; no less than 8.00 on CDK2-CYCLIN E1 (ADP-Glo, 1000 μM ATP, Table 19); 7.30 to 8.00 on CDK9-CYCLIN T1 (ADP-Glo, 1000 μM ATP, Table 19); 7.30 to 8.00 at CDK4-CYCLIN D1 (ADP-Glo, 1000 μM ATP, Table 19); 6.60 to 7.30 in the test with CCNE1-normal SKOV3 cells. Also, the negative logarithm of the IC50 (pIC50) at CDK1-CYCLIN B (ADP-Glo, 1000 μM ATP, Table 19) was 7.30 to 8.00; at CDK6-CYCLIN D3 (ADP-Glo, 1000 μM ATP, Table 19) it was 7.00 to 7.30.
